The assay concerns A549 cells. Description: In vitro cytotoxicity screening with median-effect (combination index) analysis of irinotecan and carboplatin. It is filed as cell-based. Conditions: single drug versus irinotecan plus carboplatin combination.

Description: As shown, therapeutic agents A and B are tested individually and together at two different ratios for their ability to cause cell death or cell stasis. In these experiments cell death or stasis was assessed using the MTT (3-[4,5-dimethylthiazol-2-yl]-2,5-diphenyltetrazolium) assay described below. Briefly, the dye MTT is reduced by living cells, producing a measurable change in optical density that is correlated to cell viability.
Correlations between the concentration of therapeutic agents A and B, and the two different combination ratios (Y:Z and X:Y) are plotted against cytotoxicity. Cytotoxicity is calculated as a percentage of surviving cells based on the survival of untreated control cells. […] Once this correlation has been established, the cell survival or fraction affected (fa) is used as a surrogate for concentration in calculating the CI.
The Chou-Talalay median-effect method is preferred. The analysis utilizes an equation wherein the dose that causes a particular effect, fa, is given by: D=Dm[fa/(1−fa)]^1/m in which D is the dose of the drug used, fa is the fraction of cells affected by that dose, Dm is the dose for median effect signifying the potency and m is a coefficient representing the shape of the dose-effect curve (m is 1 for first order reactions). […]

Turning to `N.N.O=C([O-])C1(C(=O)[O-])CCC1.[Pt+2]` [carboplatin], the “Concentration required to achieve a 90% cell kill on its own compared with the concentration required when combined at a non-antagonistic ratio” value is “significantly higher”.
The entry for `CCc1c2c(nc3ccc(OC(=O)N4CCC(N5CCCCC5)CC4)cc13)-c1cc3c(c(=O)n1C2)COC(=O)[C@]3(O)CC` [irinotecan] is “significantly higher”.
